In paper PMC8161026, “Synthesis and Anticancer Activity Evaluation of 5-[2-Chloro-3-(4-nitrophenyl)-2-propenylidene]-4-thiazolidinones” (Molecules, 2021):

Key:
[1] = in vitro; conditions: human
Description: (§1) Another part of our study was to determine the influence of compounds 2f, 2i, 2j, and 2h on normal human blood lymphocytes (Figure 5). […] Thus, normal blood lymphocytes are blood cells, as well as cells of leukemia cell lines, therapeutic index (TI) of compounds 2f, 2h, and 2j was calculated as GI50 (normal blood lymphocyte)/GI50 (leukemia cell line) (Table 5).
(§2) Figure 5 Human lymphocyte viability after 48 h of 2f, 2i, 2j, 2h, and Ciminalum drug exposure was estimated by MTT assay.
(§3) The assay was performed by using 3-(4,5-dimethylthiazole-2-yl)- 2,5-diphenyltetrazolium bromide (MTT). Confluent cells, cultured for 24 h with 0.1, 1, 5, 10, 20, 30, and 100 µM concentrations of studied compounds in 24-well plates were washed with PBS. MTT was dissolved in PBS, and 25 µL were added to each well. Plates were incubated for 4 h at 37 °C in 5% CO2 in an incubator. The medium with MTT was removed, and 1 mL of DMSO was added to the attached cells. Furthermore, cells were incubated for 5–10 min in RT and then 10 µl of Sorensen buffer was added to each well. The absorbance of converted dye in living cells was measured at a wavelength of 570 nm. The cell viability of breast cancer cells, gastric cancer cells, and human colon cancer cells cultured in the presence of ligands was calculated as percent of control cells.
(§4) First, 20 mL of venous blood was taken from volunteers (Ethical protocol number 2, 27 January 2019) and collected in the presence of 200 μL of undiluted fresh heparin (1/100). Sterile blood was diluted 2 times with 0.9% NaCl under the sterile conditions. Isolation of lymphocytes was performed in a density gradient of ficol-verografin using the protocol of the manufacturer (Lympoprep, NYCOMED PHARMA AS, Oslo Norway). The resulting lymphocytes were resuspended in the RPMI-1640 medium and cultured for several days (up to 10 days). To separate the lymphocytes from the monocytes, cell suspension was left for 24 h. After 24 h of culture, monocytes were attached, while lymphocytes were transferred to a fresh Falcon tube (15 mL). To stimulate the proliferation of lymphocytes, they were cultured on CD3+ antibody-coated plastic plate in the RPMI-1640 medium supplemented with 20% FBS.

[2] = test system: AGS (gastric cancer); experiment: MTT cell viability assay; assay type: cell-based; conditions: Homo sapiens, 24 h
Description: (§5) In the second stage of the research, Ciminalum-thiazolidinone hybrids were investigated for antitumor activity on the lines of gastric cancer (AGS), human colon cancer (DLD-1), and breast cancers (MCF-7 and MDA-MB-231). The study was performed in the MTT assay according to the method described previously. The studied cancer line was sensitive to the action of the studied compounds that inhibited its growth in micromolar ranges of GI50. The hit compounds that inhibited the growth of all four cancer lines with the lowest GI50 values were [5-[2-chloro-3-(4-nitrophenyl)prop-2-enylidene]-rhodanines 2c, 2d, 2h, and 2i (Table 4).

[3] = test system: DLD-1 (human colon cancer); experiment: MTT cell viability assay; assay type: cell-based; conditions: DLD-1, MTT, 24 h
Description: as §5

[4] = test system: MCF-7 (breast cancer); experiment: MTT cell viability assay; assay type: cell-based; conditions: Homo sapiens, MCF7; MCF-7, MTT, 24 h
Description: as §5

[5] = test system: MDA-MB-231 (breast cancer); experiment: MTT cell viability assay; assay type: cell-based; conditions: Homo sapiens; MDA-MB-231, MTT, 24 h
Description: as §5

[6] = test system: normal human blood lymphocytes; experiment: in vitro
Description: as §1, §2, §3, §4

[7] = test system: breast cancer lines MCF-7 and MDA-MB-231; experiment: MTT cell viability assay, both breast cancer lines; assay type: cell-based; conditions: Homo sapiens; MCF-7 and MDA-MB-231, MTT; read-out: GI50 level
Description: as §5

[8] = test system: Jurkat T-cells; design: method as in doi:10.7124/bc.00003D; conditions: cited from earlier work

| SMILES | GI50 at 48 h [1] [µM] | GI50 [2] [µM] | GI50 [3] [µM] | GI50 [4] [µM] | GI50 [5] [µM] | melting point [°C] | toxicity toward normal human blood lymphocytes [6] | GI50 [7] [µM] | caspase-7 activation [8] | cleavage of PARP-1 and DFF45 [8] |
| --- | --- | --- | --- | --- | --- | --- | --- | --- | --- | --- |
| O=C/C(Cl)=C/c1ccc([N+](=O)[O-])cc1 [Ciminalum, (2Z)-2-chloro-3-(4-nitrophenyl)prop-2-enal, reference compound] | 10.4 | – | – | – | – | – | – | – | – | – |
| O=C1NC(=O)/C(=C/C(Cl)=C/c2ccc([N+](=O)[O-])cc2)S1 [Compound 2a, 5-[(Z,2Z)-2-Chloro-3-(4-nitrophenyl)-2-propenylidene]-2,4-thiazolidinedione] | – | 18.7 | 14 | 18 | 13.9 | > 270 | – | – | – | – |
| O=C(NN1C(=O)/C(=C/C(Cl)=C/c2ccc([N+](=O)[O-])cc2)SC1=S)c1csc2c1CCCC2 [Compound 2d, 5-[(Z,2Z)-2-Chloro-3-(4-nitrophenyl)-2-propenylidene]-4-oxo-3-(4,5,6,7-tetrahydrobenzo[b]thiophen-3-ylcarboxamido)-2-thioxo-4-thiazolidinone] | – | 4.08 | 5.47 | 4.45 | 3.11 | > 230 | – | – | – | – |
| O=C(Cc1ccccc1Nc1c(Cl)cccc1Cl)NN1C(=O)/C(=C/C(Cl)=C/c2ccc([N+](=O)[O-])cc2)SC1=S [Compound 2e, N^1-{5-[(Z,2Z)-2-Chloro-3-(4-nitrophenyl)-2-propenylidene]-4-oxo-2-thioxothiazolidin-3-yl}-2-[2-(2,6-dichloroanilino)phenyl]acetamide] | – | 17.1 | 16 | 17.9 | 15.8 | 257 to 258 | – | – | – | – |
| O=C1/C(=C/C(Cl)=C/c2ccc([N+](=O)[O-])cc2)SC(=S)N1CCS(=O)(=O)O [Compound 2g, 2-{5-[(Z,2Z)-2-Chloro-3-(4-nitrophenyl)-2-propenylidene]-4-oxo-2-thioxothiazolidin-3-yl}-1-ethanesulfonic acid] | – | 18 | 27.5 | 26.4 | 16.8 | > 260 | low toxicity | – | – | – |
| O=C(O)CCCCCN1C(=O)/C(=C/C(Cl)=C/c2ccc([N+](=O)[O-])cc2)SC1=S [Compound 2i, 6-{5-[(Z,2Z)-2-Chloro-3-(4-nitrophenyl)-2-propenylidene]-4-oxo-2-thioxothiazolidin-3-yl}hexanoic acid] | > 100 | 3.2 | 9.22 | 1.73 | 0.95 | > 220 | low toxicity | 0.95 to 1.74 | – | – |
| O=C(O)CC(C(=O)O)N1C(=O)/C(=C/C(Cl)=C/c2ccc([N+](=O)[O-])cc2)SC1=S (stereo not drawn) [Compound 2k, 2-{5-[(Z,2Z)-2-Chloro-3-(4-nitrophenyl)-2-propenylidene]-4-oxo-2-thioxothiazolidin-3-yl}succinic acid] | – | 13.1 | 10 | 18.1 | 15.3 | 220 to 222 | – | – | – | – |
| O=C(O)CCC(C(=O)O)N1C(=O)/C(=C/C(Cl)=C/c2ccc([N+](=O)[O-])cc2)SC1=S (stereo not drawn) [Compound 2l, 2-{5-[(Z,2Z)-2-Chloro-3-(4-nitrophenyl)-2-propenylidene]-4-oxo-2-thioxothiazolidin-3-yl}pentanedioic acid] | – | 12.6 | 9.19 | 21.2 | 17.5 | 205 to 207 | – | – | – | – |
| O=C1NC(=N/c2ccc(F)cc2)/C(=C/C(Cl)=C/c2ccc([N+](=O)[O-])cc2)S1 [III] | – | – | – | – | – | – | – | – | weak | weak |
